The target in one series is T1, BTK (Homo sapiens, UniProt Q06187).
T1 construct: endogenous in cells; host or cells: Mino cells
Description: BTK degradation activity test in Mino cells (Westernblot or Elisa). The conditions noted are these: 24-72 h incubation. The class given is cell-based. The protocol:
The Mino cell line cells are 0.5˜1 million/well in 6-well plates. The compounds are diluted to different concentrations, added to the plate, and after 24-72 h of incubation, the cells are collected. After the cells were lysed, the total protein concentration in each well was determined with a BCA kit. The amount of BTK is determined using the Westernblot or Elisa method.

A further series deals with Mino cells. Description: Inhibitory activity on Mino cell proliferation (MTS). The class given is cell-based. The conditions noted are these: Homo sapiens, 72 h or 168 h. A digest of the protocol: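 OCI-LY10 and Mino cells seeded at 10000 cells/well overnight, then exposed to compound (from 1000 nM, 4-fold, 8 points) for 72 h or 168 h at 37° C. Viability by MTS, 2 h, absorbance at 490 and 650 nm; IC50 from the dose-response curve.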

Series [1] is described as follows: Liver microsomal metabolic stability, human. The class given is in vitro ADME. As to conditions: human liver microsomes, NADPH, 37° C. The protocol: (§1) Under the condition of ice bath, 1 mg of human or Mouse liver microparticles was add to PBS (1 mL) buffer, then NADPH (20 μL) was added, and incubated at 37° C. for 5 min. 10 μL of the compound to be tested was added, then suck several times with a pipette and divide into 3 aliquots of 330 μL; each and then samples were taken at 0, 15, 30, 60 and 120 min respectively. 10 μL of the solution was taken with a pipette each time and added to 490 μL of the solution containing the internal standard compound. The resulting solution was vortexed and then placed on ice, and then sampling at another time point continues. All samples were centrifuged at 10,000 rpm for 10 min, and the supernatant was taken for LC/MS testing. The metabolism of the compound in liver microsomes was calculated based on the peak area.
Background: Microsomes from liver hold many membrane-bound enzymes, among them those of drug oxidation.

Series [2] can be described thus: Liver microsomal metabolic stability, mouse. The class given is in vitro ADME. As to conditions: mouse liver microsomes, NADPH, 37° C. As for the experimental part:
as §1

The nature of a further series: Mouse absorption test. The class given is in vivo. As to conditions: mice, intragastric 10 mg/kg, plasma. As for the experimental part: Experimental method: mice were used as experimental animals, and drugs were administered intragastrically at 10 mg/kg (5% DMSO+5% Solutol+90% saline). The blood collection time points for intragastric administration were 0.25, 0.5, 1, 2, 4, 6, 8, and 24 h. 0.3 ml of whole blood was taken, and 0.1 ml of plasma was taken after centrifugation and analyzed by LC-MS.

A further series can be described thus: Rat absorption test. The class given is in vivo. As to conditions: SD rats, intragastric 10 mg/kg, plasma. The protocol: SD Rats were used as experimental animals, and drugs were administered intragastrically at 10 mg/kg (5% DMSO+5% Solutol+90% normal saline). The blood collection time points for intragastric administration were 0.25, 0.5, 1, 2, 4, 6, 8, and 24 h. 0.3 ml of whole blood was taken, and 0.1 ml of plasma was taken after centrifugation and analyzed by LC-MS.

The structures appear in SMILES notation.

As usually defined, the DC50 is the concentration at which degradation of the target reaches its halfway point. Higher therefore signals a less potent degrader. The term IC50 denotes the concentration at which inhibition is half-maximal.

T1 sequence (Q06187 whole entry): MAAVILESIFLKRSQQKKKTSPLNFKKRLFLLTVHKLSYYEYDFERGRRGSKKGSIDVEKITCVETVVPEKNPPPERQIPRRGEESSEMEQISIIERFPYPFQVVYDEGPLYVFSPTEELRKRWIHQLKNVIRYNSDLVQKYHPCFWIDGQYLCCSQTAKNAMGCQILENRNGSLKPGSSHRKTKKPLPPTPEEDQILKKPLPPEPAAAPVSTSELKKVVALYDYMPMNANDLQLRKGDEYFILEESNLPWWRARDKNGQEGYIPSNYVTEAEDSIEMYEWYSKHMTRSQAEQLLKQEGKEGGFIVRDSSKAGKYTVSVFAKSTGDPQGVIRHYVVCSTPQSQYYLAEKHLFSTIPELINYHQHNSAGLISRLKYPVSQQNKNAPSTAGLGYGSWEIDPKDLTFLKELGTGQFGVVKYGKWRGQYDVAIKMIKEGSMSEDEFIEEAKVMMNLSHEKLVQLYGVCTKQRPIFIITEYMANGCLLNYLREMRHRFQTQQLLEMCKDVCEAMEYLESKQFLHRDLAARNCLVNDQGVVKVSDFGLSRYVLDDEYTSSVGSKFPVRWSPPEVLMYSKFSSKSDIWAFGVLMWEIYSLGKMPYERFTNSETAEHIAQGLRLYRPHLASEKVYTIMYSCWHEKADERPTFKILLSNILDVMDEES

The molecule `NC(=O)c1nnc(N2CCCCC2)nc1Nc1ccc(N2CCC(CN3CCN(c4cc5c(cc4F)C(=O)N(C4CCC(=O)NC4=O)C5=O)CC3)CC2)c(F)c1` (stereo not drawn) [Compound 045, 5-((4-(4-((4-(2-(2,6-dioxopiperidin-3-yl)-6-fluoro-1,3-dioxoisoindolin-5-yl)piperazin-1-yl)methyl)piperidin-1-yl)-3-fluorophenyl)amino)-3-(piperidin-1-yl)-1,2,4-triazine-6-carboxamide] had a DC50 at BTK of under 10 nM. Also, the IC50 with Mino cells was 3.91 nM. For the same molecule, the “Thalf (min) Human” value in series [1] amounted to 38 min. In addition, the “Thalf (min) Mouse” value in series [2] came to 120 min. Besides, the figures for the DNAUC in the series “Mouse absorption test” and in the series “Rat absorption test” were 1686 AUC (h*ng/mL)/dose (mg/kg) and 716 AUC (h*ng/mL)/dose (mg/kg), respectively.

Source of the values: patent US20260167620A1, “MULTIFUNCTIONAL COMPOUND CAPABLE OF DEGRADING BTK KINASE, AND COMPOSITION AND USE” (HANGZHOU HEALZEN THERAPEUTICS CO., LTD., priority 2021, published 2026).
